Assays:
[1] = target: Muscarinic M2 (Homo sapiens, UniProt P08172); assay: LeadProfilingScreen radioligand binding
[2] = target: Adenosine A3 (Homo sapiens, UniProt P0DMS8); assay: LeadProfilingScreen radioligand binding
[3] = target: CYP1A2 (Homo sapiens, UniProt P05177); assay: CYP450 inhibition; type: in vitro ADME; conditions: read-out: CYP450 Inhibition, 1A2
[4] = target: Nicotinic Acetylcholine α1, Bungarotoxin (Homo sapiens, UniProt P02708+P07510+Q07001); assay: biochemical; type: binding; conditions: read-out: % inhibition at 10 μM
Nicotinic Acetylcholine α1, Bungarotoxin, sequence (P02708 21-457): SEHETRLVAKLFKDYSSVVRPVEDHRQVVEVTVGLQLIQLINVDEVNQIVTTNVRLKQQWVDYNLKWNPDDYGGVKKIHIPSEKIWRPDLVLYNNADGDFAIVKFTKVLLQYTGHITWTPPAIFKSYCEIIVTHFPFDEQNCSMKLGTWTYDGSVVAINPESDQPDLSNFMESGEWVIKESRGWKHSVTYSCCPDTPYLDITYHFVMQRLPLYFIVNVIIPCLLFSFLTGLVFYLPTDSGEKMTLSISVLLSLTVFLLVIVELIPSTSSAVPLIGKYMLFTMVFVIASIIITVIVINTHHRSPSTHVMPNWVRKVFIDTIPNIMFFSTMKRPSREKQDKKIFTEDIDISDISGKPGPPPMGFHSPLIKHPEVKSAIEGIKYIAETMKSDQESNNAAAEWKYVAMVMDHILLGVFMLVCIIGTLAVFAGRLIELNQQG
Nicotinic Acetylcholine α1, Bungarotoxin, sequence (P07510 23-517): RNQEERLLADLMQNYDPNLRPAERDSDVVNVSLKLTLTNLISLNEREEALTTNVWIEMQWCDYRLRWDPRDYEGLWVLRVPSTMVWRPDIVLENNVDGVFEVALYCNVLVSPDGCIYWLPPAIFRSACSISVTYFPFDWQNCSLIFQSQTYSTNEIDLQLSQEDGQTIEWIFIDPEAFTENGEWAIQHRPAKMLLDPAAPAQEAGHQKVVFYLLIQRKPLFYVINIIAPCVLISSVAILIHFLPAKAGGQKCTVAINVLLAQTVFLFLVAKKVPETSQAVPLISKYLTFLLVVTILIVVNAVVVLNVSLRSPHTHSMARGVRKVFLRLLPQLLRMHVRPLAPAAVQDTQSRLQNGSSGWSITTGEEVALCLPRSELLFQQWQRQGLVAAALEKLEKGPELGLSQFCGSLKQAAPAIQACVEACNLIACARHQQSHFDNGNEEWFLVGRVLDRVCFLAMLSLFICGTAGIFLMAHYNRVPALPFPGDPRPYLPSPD
Nicotinic Acetylcholine α1, Bungarotoxin, sequence (Q07001 22-517): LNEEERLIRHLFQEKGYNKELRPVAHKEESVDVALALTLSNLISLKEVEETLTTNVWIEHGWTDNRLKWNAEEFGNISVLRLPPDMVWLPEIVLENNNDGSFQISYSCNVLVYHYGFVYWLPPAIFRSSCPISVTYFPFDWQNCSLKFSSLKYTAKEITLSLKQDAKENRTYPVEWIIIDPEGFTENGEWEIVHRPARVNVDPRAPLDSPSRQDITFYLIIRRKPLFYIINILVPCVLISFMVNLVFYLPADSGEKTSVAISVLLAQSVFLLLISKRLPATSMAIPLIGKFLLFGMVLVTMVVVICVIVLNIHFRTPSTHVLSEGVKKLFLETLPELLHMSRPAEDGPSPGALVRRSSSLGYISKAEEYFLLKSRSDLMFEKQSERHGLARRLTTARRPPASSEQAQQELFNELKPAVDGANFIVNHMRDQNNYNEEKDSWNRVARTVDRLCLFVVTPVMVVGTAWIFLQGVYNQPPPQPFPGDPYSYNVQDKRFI
Nicotinic Acetylcholine α1, Bungarotoxin, sequence (P11230 24-501, further chain): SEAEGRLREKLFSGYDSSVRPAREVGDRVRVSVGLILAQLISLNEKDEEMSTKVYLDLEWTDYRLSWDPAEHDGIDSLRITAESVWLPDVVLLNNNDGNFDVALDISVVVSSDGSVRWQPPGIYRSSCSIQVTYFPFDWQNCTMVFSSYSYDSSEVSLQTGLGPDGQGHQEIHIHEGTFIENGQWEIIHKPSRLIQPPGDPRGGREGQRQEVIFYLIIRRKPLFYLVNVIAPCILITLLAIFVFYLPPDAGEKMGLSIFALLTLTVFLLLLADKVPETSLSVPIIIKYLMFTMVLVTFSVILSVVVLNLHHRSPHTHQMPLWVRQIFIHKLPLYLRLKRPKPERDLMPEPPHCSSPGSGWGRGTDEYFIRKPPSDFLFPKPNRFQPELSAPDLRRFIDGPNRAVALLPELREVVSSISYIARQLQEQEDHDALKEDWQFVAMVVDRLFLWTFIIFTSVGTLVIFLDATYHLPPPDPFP

[5] = target: Muscarinic M1 (Homo sapiens, UniProt P11229); assay: LeadProfilingScreen radioligand binding
Muscarinic M1, sequence (P11229 whole entry): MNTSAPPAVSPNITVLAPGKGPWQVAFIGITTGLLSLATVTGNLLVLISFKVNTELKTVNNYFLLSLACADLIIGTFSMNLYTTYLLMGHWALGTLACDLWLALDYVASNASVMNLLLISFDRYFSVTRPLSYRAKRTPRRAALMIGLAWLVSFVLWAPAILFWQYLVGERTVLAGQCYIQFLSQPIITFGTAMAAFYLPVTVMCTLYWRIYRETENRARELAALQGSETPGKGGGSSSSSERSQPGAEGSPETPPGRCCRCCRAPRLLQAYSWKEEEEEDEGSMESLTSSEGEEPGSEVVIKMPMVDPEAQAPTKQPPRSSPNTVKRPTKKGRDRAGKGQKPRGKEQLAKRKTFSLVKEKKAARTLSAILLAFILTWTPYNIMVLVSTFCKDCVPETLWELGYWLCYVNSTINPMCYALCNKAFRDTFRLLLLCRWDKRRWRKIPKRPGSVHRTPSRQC

[6] = system: Glutamate, NMDA, Phencyclidine; assay: LeadProfilingScreen radioligand binding; design: species or system rat
[7] = target: Estrogen Erα (Homo sapiens, UniProt P03372); assay: LeadProfilingScreen radioligand binding
[8] = target: Potassium Channel [KATP] (Cricetus cricetus, UniProt Q09427); assay: LeadProfilingScreen radioligand binding; design: species or system hamster
Potassium Channel [KATP], sequence (Q09427 whole entry): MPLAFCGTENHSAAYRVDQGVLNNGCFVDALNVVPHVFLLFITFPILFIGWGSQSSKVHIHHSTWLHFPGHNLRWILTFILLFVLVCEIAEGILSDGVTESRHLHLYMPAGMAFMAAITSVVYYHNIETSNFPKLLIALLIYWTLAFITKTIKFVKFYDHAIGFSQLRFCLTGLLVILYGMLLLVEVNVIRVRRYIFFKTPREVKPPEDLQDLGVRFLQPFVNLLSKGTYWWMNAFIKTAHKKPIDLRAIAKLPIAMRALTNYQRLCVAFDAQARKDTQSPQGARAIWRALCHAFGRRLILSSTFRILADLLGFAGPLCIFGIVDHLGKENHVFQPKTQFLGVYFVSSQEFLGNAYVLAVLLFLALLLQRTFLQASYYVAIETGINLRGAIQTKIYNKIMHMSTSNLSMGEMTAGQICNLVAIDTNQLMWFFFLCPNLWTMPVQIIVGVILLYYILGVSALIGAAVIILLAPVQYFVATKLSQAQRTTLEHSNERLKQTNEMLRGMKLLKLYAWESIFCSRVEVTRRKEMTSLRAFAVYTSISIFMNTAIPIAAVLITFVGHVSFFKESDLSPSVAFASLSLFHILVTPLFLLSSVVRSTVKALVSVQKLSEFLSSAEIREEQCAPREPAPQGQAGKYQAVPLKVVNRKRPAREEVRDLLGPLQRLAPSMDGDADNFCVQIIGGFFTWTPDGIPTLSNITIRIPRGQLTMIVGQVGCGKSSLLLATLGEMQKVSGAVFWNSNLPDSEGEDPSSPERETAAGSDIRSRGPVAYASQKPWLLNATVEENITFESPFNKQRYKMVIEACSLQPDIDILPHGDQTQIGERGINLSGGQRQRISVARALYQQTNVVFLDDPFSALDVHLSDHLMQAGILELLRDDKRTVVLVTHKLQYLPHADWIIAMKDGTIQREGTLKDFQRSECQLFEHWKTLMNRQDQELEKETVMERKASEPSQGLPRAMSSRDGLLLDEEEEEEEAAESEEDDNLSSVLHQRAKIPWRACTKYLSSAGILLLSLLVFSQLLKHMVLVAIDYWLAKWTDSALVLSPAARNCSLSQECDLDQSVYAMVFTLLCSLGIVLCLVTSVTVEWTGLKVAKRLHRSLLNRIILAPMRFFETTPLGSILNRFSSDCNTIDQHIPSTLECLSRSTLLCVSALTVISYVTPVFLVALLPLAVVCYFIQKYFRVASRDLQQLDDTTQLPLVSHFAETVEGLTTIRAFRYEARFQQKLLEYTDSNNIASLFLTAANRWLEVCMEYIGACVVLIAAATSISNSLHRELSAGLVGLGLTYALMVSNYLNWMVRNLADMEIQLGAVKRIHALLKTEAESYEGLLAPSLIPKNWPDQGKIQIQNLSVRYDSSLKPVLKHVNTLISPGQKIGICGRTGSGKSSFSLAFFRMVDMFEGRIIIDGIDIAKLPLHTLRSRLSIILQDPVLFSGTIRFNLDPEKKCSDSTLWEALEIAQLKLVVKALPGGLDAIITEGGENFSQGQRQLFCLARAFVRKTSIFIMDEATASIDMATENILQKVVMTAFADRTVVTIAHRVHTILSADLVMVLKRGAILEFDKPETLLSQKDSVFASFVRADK
Procedure: Both lead compounds, VU6047606 and VU6032735, were subjected to radioligand binding assays in a Eurofins LeadProfilingScreen SafetyScreen Panel to detect potential adverse activity, relative selectivity, and off-target activity. Compounds were screened at 10 μM and percent inhibition was monitored across 68 potential off-target G protein-coupled receptors, ion channels, nuclear hormone receptors, and transporters. ,

[9] = target: Serotonin (5-Hydroxytryptamine) 5-HT3 (Homo sapiens, UniProt P46098); assay: LeadProfilingScreen radioligand binding
[10] = target: T1, hSLO2.1 (Homo sapiens, UniProt Q6UVM3); assay: SLO2.1 inhibition in HEK cells; type: cell-based; conditions: HEK293; read-out: HEK hSLO2.1 % inhib. 10 μM
T1 construct: expressed in transfected cells; host or cells: HEK
T1 sequence (Q6UVM3 1-1135): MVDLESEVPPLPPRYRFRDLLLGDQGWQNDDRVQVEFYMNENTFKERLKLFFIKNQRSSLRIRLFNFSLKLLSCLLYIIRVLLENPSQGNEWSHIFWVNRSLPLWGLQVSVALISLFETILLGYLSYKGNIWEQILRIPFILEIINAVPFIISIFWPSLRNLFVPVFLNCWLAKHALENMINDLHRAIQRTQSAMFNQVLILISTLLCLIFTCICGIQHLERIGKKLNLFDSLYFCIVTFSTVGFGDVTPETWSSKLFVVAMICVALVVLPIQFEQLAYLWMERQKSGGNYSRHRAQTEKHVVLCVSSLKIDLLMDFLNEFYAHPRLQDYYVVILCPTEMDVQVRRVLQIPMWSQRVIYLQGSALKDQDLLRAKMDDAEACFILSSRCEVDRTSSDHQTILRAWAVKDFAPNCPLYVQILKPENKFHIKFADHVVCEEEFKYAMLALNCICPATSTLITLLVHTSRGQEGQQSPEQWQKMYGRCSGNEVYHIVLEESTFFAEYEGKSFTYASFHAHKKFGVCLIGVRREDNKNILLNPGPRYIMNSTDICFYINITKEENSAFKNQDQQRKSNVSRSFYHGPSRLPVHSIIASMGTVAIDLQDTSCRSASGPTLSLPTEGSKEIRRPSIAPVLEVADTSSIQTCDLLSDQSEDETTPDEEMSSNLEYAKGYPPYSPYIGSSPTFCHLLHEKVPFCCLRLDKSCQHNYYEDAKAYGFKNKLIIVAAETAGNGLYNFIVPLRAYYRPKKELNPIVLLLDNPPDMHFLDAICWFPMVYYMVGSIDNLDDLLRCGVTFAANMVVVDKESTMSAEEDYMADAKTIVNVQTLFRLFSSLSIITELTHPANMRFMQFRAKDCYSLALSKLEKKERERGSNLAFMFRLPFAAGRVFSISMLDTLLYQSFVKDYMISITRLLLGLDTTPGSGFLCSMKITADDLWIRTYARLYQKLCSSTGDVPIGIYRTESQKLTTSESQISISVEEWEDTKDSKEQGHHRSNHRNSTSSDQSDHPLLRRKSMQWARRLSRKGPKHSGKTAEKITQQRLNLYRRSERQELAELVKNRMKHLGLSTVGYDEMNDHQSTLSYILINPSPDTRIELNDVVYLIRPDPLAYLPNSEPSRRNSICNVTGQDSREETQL

[11] = target: CYP2C9 (Homo sapiens, UniProt P11712); assay: CYP450 inhibition; type: in vitro ADME; conditions: read-out: CYP450 Inhibition, 2C9
[12] = target: Serotonin (5-Hydroxytryptamine) 5-HT2B (Homo sapiens, UniProt P41595); assay: LeadProfilingScreen radioligand binding
Serotonin (5-Hydroxytryptamine) 5-HT2B, sequence (P41595 whole entry): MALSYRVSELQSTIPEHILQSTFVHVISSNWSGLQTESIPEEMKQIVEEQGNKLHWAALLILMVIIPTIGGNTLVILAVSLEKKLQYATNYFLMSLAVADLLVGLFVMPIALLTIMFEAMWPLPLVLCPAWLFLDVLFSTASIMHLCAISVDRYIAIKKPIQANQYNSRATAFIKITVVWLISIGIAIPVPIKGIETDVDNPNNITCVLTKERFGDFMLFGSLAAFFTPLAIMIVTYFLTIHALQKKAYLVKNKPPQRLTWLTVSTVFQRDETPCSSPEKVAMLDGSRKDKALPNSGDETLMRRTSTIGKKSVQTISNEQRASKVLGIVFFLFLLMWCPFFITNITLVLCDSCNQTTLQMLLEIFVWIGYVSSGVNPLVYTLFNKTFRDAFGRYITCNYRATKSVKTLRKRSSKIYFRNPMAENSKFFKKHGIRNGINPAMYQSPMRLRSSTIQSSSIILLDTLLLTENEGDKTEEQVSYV

[13] = target: Dopamine D1 (Homo sapiens, UniProt P21728); assay: LeadProfilingScreen radioligand binding
[14] = target: Transporter, Norepinephrine (NET) (Homo sapiens, UniProt P23975); assay: LeadProfilingScreen radioligand binding
Transporter, Norepinephrine (NET), sequence (P23975 whole entry): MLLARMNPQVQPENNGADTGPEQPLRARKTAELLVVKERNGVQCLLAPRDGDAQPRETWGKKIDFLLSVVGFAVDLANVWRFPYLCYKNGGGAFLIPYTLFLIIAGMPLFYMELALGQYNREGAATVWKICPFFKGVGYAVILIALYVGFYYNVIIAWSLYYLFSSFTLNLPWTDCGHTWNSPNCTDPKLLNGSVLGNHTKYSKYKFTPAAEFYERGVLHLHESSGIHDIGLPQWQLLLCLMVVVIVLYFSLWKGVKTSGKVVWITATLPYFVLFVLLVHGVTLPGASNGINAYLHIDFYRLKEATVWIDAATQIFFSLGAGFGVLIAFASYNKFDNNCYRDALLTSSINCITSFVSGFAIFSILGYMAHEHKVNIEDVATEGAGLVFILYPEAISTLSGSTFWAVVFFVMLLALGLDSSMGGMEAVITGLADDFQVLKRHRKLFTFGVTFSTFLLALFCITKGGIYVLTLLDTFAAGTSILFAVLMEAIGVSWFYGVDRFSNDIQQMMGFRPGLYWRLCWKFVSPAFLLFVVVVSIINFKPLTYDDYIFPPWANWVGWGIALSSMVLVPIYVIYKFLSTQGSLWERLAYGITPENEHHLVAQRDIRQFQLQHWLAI

[15] = target: Opiate δ1 (OP1, DOP) (Homo sapiens, UniProt P41143); assay: LeadProfilingScreen radioligand binding
[16] = target: Glutamate, NMDA, Glycine (Rattus norvegicus, UniProt P35439); assay: LeadProfilingScreen radioligand binding

`Cc1cc(Cl)cc2sc(O[C@H]3CCN(C(=O)CCCS(=O)(=O)c4cccc(Br)c4)C[C@H]3F)nc12` [VU6047606] gave an inhibition at 10 µM [1] of -6%, an inhibition at 10 µM [2] of 43% and an IC50 [3] greater than 30 µM. For the same compound, the inhibition at 10 µM [4] was 5%, the inhibition at 10 µM [5] was 6% and the “% inhibition at 10 μM” value [6] was 6%. For the same compound, the inhibition at 10 µM [7] was 6%, the inhibition at 10 µM [8] was -5% and the inhibition at 10 µM [9] was -17%. The inhibition at 10 µM [10] was 4%, the IC50 [11] was greater than 30 µM and the inhibition at 10 µM [12] was 18%. It also gave an inhibition at 10 µM [13] of 25%, an inhibition at 10 µM [14] of 44% and an inhibition at 10 µM [15] of 12%. It also gave an inhibition at 10 µM [16] of -1%.

Work on `Cc1cc(Cl)cc2sc(OC3CCN(C(=O)CCCS(=O)(=O)c4cccc(Br)c4)CC3F)nc12` (stereo not drawn) [VU6045330] yielded an inhibition at 10 µM [10] of 22%.

In the case of `O=C(c1ccc(OCc2ccc(OC(F)(F)F)cc2)cc1)N1CCN(c2ccc(C(F)(F)F)cn2)CC1` [VU6032735], the inhibition at 10 µM [1] is reported as -10%, the inhibition at 10 µM [2] is reported as 9% and the IC50 [3] is reported as greater than 30 µM. The inhibition at 10 µM [4] was 2%, the inhibition at 10 µM [5] was -8% and the “% inhibition at 10 μM” value [6] was 8%. It also gave an inhibition at 10 µM [7] of 11%, an inhibition at 10 µM [8] of -7% and an inhibition at 10 µM [9] of -11%. The inhibition at 10 µM [10] was 22%, the IC50 [11] was greater than 30 µM and the inhibition at 10 µM [12] was -6%. It also gave an inhibition at 10 µM [13] of 12%, an inhibition at 10 µM [14] of 30% and an inhibition at 10 µM [15] of 7%. For the same compound, the inhibition at 10 µM [16] was -3%.
